Results taken from patent publication US12357608B2, “Methods and compositions utilizing RRx-001 combination therapy for radioprotection” (priority 2018, dated 2025).

Legend:
[1] = tested on: superoxide dismutase; assay: Superoxide dismutase activity assay in hMSC; assay type: cell-based, human; conditions: 5 mM RRx-001 16 hours; 8 hours after 10 Gy irradiation
Protocol: The activity of superoxide dismutase activity was also assayed in hMSC. hMSC were treated for 16 hours with […] RRx-001 or vehicle, irradiated at 10 Gy or sham-irradiated and whole cell homogenate collected according to the manufacture's protocol. The assay measures the activity of all three forms of SOD. The amount of SOD activity (U/mL) was normalized to protein levels.

[2] = tested on: human normal bone marrow mesenchymal stem cells (hMSC); assay: Western blotting of antioxidant response element (ARE) proteins in irradiated hMSC; assay type: cell-based; conditions: 5 mM RRx-001 16 hours
Protocol: Antioxidant response element (ARE) genes such as heme oxygenase 1 (HO-1), NAD(P)H Dehydrogenase [Quinone] 1 (NQO-1) and Superoxide Dismutase (SOD) are involved in the detoxification and elimination of reactive oxidants.
Expression of ARE proteins was assayed in hMSC, macrophages, and monocytes following in vitro irradiation of the cells, which were pretreated with RRx-001 or vehicle. Protein expression was assayed by Western blotting and protein quantification.
hMSC were treated for 16 hours with […] RRx-001 or the vehicle control (0.05% DMSO), irradiated at 10 Gy or sham-irradiated and the protein collected 8 or 24 hours post-sham or irradiation. Human monocytic leukemic THP-1 and U937 cells were differentiated into macrophages with 50 nM Phorbol 12-myristate 13-acetate (PMA) for 24 hours before treatment. Differentiated and non-differentiated cells were treated with […] RRx-001 or 0.05% DMSO (vehicle control) for 16 hours prior to radiation. The cells were irradiated at 5 Gy or sham-irradiated and collected 4-8 hours later for both analysis. For each experiment, duplicates of each sample were run.

[3] = tested on: CD2F1 male mice; assay: Complete blood count with differential and reticulocytes after sublethal TBI or sham irradiation; assay type: in vivo; conditions: 7 Gy TBI
Protocol: To determine the pathophysiological effects of RRx-001 on hematopoietic protection in mice, CD2F1 male mice were treated with 10 mg/kg RRx-001 or the vehicle control 24 hours prior to a sublethal dose of TBI (7 Gy at 0.6 Gy/min using High-level Cobalt-60) or sham irradiation (day 0) according to the table below.
CD2F1 male mice (n=3/group) were divided into 4 experimental groups: 1) irradiation+vehicle, 2) irradiation+RRx-001, 3) sham-irradiation+vehicle and 4) sham-irradiation+RRx-001. Either 10 mg/kg RRx-001 or the vehicle control were IP injected 24 hours prior to either irradiation or sham-irradiation (day 0). On days 2, 7, 14, 21, and 28 post-irradiation (day 0) mice were humanely euthanized. Blood, bone marrow, and sternebrae were then collected. This experiment was performed in duplicate for a total of n=6 mice/group/time point.
Post-irradiation whole blood was obtained by terminal cardiocentesis. Blood samples were immediately transferred into EDTA tubes (Sarstedt Inc., Newton, NC) and gently rotated until the time of analysis. The tubes were analyzed for a complete blood count with differential and reticulocytes using the ADVIA 2120 (Siemens Medical Solutions Diagnostics, Dublin, Ireland), and Microsoft software version 5.9 (Microsoft Corp., Redmond, WA) to generate the data.
Blood parameters were compared between treatment groups using an analysis of variance (ANOVA). The Wilcoxon test was also used for sensitivity and to potentially address data departures from normality. A longitudinal mixed model repeated measures was also implemented to provide a more complete data analysis of the sham-irradiated treatment groups' difference in overall time profile mean based on the blood parameters. Bone marrow data (megakaryocytes and grade) statistical analysis was carried out using a parametric test consisting of a general linear model analysis of variance (ANOVA with factors consisting of treatment group and pathologist) and the Kruskal-Wallis nonparametric test. The statistical data analysis was carried out using R software (Version 3.4.3, 2016) and the graphs made using GraphPad Prism version 7.03 (GraphPad Software, La Jolla, CA).

[4] = tested on: Nrf2; conditions: tumor cells exposed to RRx-001; Ning et al., Oncotarget 2015; cited from earlier work
[5] = tested on: male Syrian Golden Hamsters; assay: Oral mucositis induced by acute radiation in hamsters; assay type: in vivo
Protocol: Fifty-six (56) male Syrian Golden Hamsters were used in the study. Mucositis was induced by administering an acute radiation dose of 40 Gy directed to the left buccal cheek pouch on Day 0 at a rate of 2-2.5 Gy/min. Mucositis was evaluated clinically starting on Day 6 and continuing on alternate days until Day 28. Hamsters reaching a mucositis severity score of 4 or higher received buprenorphine (0.5 mg/kg) SC twice a day for 48 hours or until score dropped below 4.
Dosing was scheduled as follows: for animals in Groups 1-4, animals were dosed with RRx-001 (1, 3, or 10 mg/kg) or vehicle (1:2 DMA:PEG400 vol:vol ratio) once a day (QD) on Days −4, −1, 1, 4, 7, 11, 14, 18, 21, and 25 via intraperitoneal (IP) administration; animals in Groups 5-7 were dosed QD with RRx-001 (1, 3, or 10 mg/kg) on Days −4, −1, 1, 8, 15, and 22.
The significance of differences observed between the control and treatment group was evaluated by comparing the days with mucositis scores≥3 and <3 between groups using chi-square analysis. […] The percentage of animal days with a score of ≥3 in the Vehicle Group was 57.29%. […] There were numerous days where animals dosed with RRx-001 had percent ulceration days that were lower (which can be interpreted as ameliorative of disease severity) in comparison to vehicle-dosed animals.
An analysis of the severity of mucositis was performed using the Mann-Whitney rank sum analysis to compare the visual mucositis scores for the treatment group to the Vehicle control group on each day of evaluation. In this analysis, 2 days of significant reduction in the mucositis score are generally required before it is regarded as meaningful.
This evaluation was intended to clarify which days of treatment had its maximal impact on the course of ulcerative mucositis. There were numerous days where animals dosed with RRx-001 had percent ulceration days that were lower (which can be interpreted as ameliorative of disease severity) in comparison to vehicle-dosed animals.

[6] = days 2 and 21 post-irradiation, vs vehicle control

O=C(CBr)N1CC([N+](=O)[O-])([N+](=O)[O-])C1 [RRx-001, 2-bromo-1-(3,3-dinitroazetidin-1-yl)ethan-1-one]
Superoxide Dismutase Activity [1]: did not increase
SOD1 and 2 expression ([2]; 10 Gy irradiation, 8 hours): slight increase
HO-1 expression increase ([2]; 24 hours post-sham or irradiation): 2-3.5 fold
NQO-1 expression ([2]; all groups): slightly reduced
HO-1 expression increase ([2]; sham and 10 Gy irradiated groups, 8 hours post-sham or irradiation): 22-26 fold
% RETIC ([3]; day 14, vs control mice): significantly increased
ALC counts ([3]; day 14, vs controls): significantly increased
WBC counts ([3]; day 14, vs controls): significantly increased
% HCT ([3]; day 14, vs irradiated control): significantly increased
% RETIC ([3]; day 28, vs vehicle controls): significantly increased
absolute lymphocyte count (ALC) [3, 6]: No significant difference
absolute neutrophil count (ANC) [3, 6]: No significant difference
percent hematocrit (% HCT) [3, 6]: No significant difference
percent reticulocytes (% RETIC) [3, 6]: No significant difference
platelets (PLT) [3, 6]: No significant difference
white blood cells (WBC) [3, 6]: No significant difference
ANC ([3]; days 7 and 14, vs control): significantly increased
PLT ([3]; days 7 and 14, vs control): significantly increased
red blood cells and hemoglobin ([3]; irradiated RRx-001 vs irradiated vehicle group): not significantly different
white blood cells and red blood cell production ([3]; irradiated mice vs irradiated vehicle control): significant increase
nuclear presence of transcription factor Nrf2 [4]: increased nuclear presence
daily mucositis scores compared to the Vehicle control group ([5]; 1 mg/kg IP): multiple days of significant improvement in mucositis scores
daily mucositis scores compared to the Vehicle control group ([5]; 10 mg/kg IP): multiple days of significant improvement in mucositis scores
mean daily mucositis scores ([5]; 10 mg/kg IP, Group 2, dosed Days −4, −1, 1, 40 Gy): modest but significant enhancement of disease healing
body weight by study termination ([5]; 10 mg/kg IP, Groups 2 and 5, after cessation of dosing): rebounded back to be in line with other groups
tolerability of the highest dose ([5]; 10 mg/kg IP, Groups 2 and 5, dosing discontinued after Day 1): adverse side effects
body weight ([5]; 10 mg/kg IP, Groups 2 and 5, during study): lower weights than all other groups
percent ulceration ([5]; 10 mg/kg, Groups 2 and 5, only dosed on Days −4, −1, and 1): best response in decreasing percent ulceration
percent days of ulceration, twice weekly dosing vs one time per week ([5]; 3 and 1 mg/kg, 1 mg/kg, Group 4 vs Group 7): more beneficial effects on percent days of ulceration
percentage of days with a mucositis score of ≥3 in comparison to the Vehicle Group ([5]; Group 2, 10 mg/kg on Days −4, −1, 1, p<0.01): statistically lower
body weight ([5]; all groups except Groups 2 and 5 (1 and 3 mg/kg IP)): steadily gained weight
mean daily mucositis scores ([5]; all other treatment groups (Groups 3-7)): tracked fairly close to each other, and with Vehicle dosed controls
percent ulceration days in comparison to vehicle-dosed animals ([5]; numerous days): lower
